{"source": "patent US12129255B2", "about": "“Pyrido [2,3-d]pyrimidine derivatives as inhibitors of human immunodeficiency virus replication” (VIIV HEALTHCARE UK (No. 5) LIMITED, priority 2019, dated 2024)", "type_in_all_cases": "in vitro ADME", "key": {"[1]": {"assay": "Metabolism in human hepatocytes", "protocol": "Cryopreserved hepatocytes in suspension from human, monkey, dog, rat and mouse were thawed and diluted in pre-warmed William's Medium E (pH 7.4). Aliquots of the hepatocyte suspension were added to test compound working solutions prepared in pre-warmed William's Medium E (pH 7.4) to achieve final concentrations of 0.5 μM in 0.5×10^6 cells per milliliter and ≤0.25% DMSO. These samples were incubated at 37° C. with 5% carbon dioxide and shaking at 200 rpm. The incubations were performed in singlet. […] Following completion of the experiment, samples were analyzed by LC-MS/MS. […] This percentage is calculated by dividing the peak area ratio of test compound following incubation (tx) by the peak area ratio of test compound at time-zero (t0) just prior to incubation. • The elimination rate constant (k, min^−1) is calculated using nonlinear regression fitting with the following equation: Ct=C0×e^(−k×t) • where: • C0 is the initial concentration represented as the peak area ratio (test compound peak area/internal standard peak area); • Ct is the concentration at t represented as the area ratio (test compound peak area/internal standard peak area); • e is the base of the natural logarithm • t is the time (min); • k is the elimination rate constant (min^−1). • The half-life (t1/2, min) is calculated using the following equation: […]"}, "[2]": {"assay": "Metabolism in liver microsomes (dog)", "protocol": "Liver microsomes from human, rat dog and monkey were thawed and diluted to a final concentration of 1 mg/mL in 100 mM potassium phosphate buffer (pH 7.4). Test compounds and controls were prepared at 100× final concentration of 1 μM in 1:1 acetonitrile:water (v/v) and aliquoted into microsomal mixture. The mixture was preincubated at 37° C. in a shaking water bath for 10 minutes. The incubations were performed in duplicate. Three controls were included in the incubations; warfarin, phenacetin, and verapamil. After the preincubation, the reaction was initiated with NADPH at a final concentration of 1 mM. At 0, 5, 15, 30, 45 and 60 minutes, 25 μL of sample was removed and quenched with 300 μL of acetonitrile containing internal standard (Telmisartan). The samples were vortexed for 5 minutes at 1200 rpm and then centrifuged at 4000 rpm for 10 min. A 100 μL aliquot of supernatant was diluted three-fold with water and injected on an Exion LC 4500 Triple Quad LC-MS/MS system. Results were reported as a percentage of parent remaining and was calculated from peak area ratios of test compound remaining after at each time point and compared to time zero incubation."}, "[3]": {"system": "CYP2B6", "assay": "Cytochrome P450 (CYP2B6) induction in cryopreserved human hepatocytes, mRNA fold-change method", "settings": "hepatocytes from three donors, 0.12 to 30 μM, 48 hours; Example 1 all three donors, Example 60.2 2 of 3 donors", "protocol": "Following the guidance of the FDA (“In Vitro Metabolism- and Transporter-Mediated Drug-Drug Interaction Studies Guidance for Industry”), the potential of Example 1 and Example 60.2 to induce CYP2B6 expression was tested using hepatocytes from the same three individual donors (rather than pooled donors), and changes in enzyme mRNA levels were evaluated using the “fold-change method”. In this test a fold-change in mRNA levels less than 2-fold is considered a negative finding, while a change 2-fold is considered a positive finding.\nCompounds were tested in a CYP induction assay using inducible cryopreserved human primary hepatocytes from three donors to determine the potential to cause induction (as measured by an increase in mRNA transcription) of CYP2B6. […] At the end of the incubation, the integrity of cell monolayers, cell density and viability were evaluated to assess cytotoxicity effects. […] Samples were then used in reverse transcription polymerase chain reactions (RT-PCR) to quantify the amount of specific mRNA species encoding the human CYP2B6 gene.\nThe induction potential of test compounds and controls was compared to known CYP2B6 inducer Phenobarbital (1000 μM). The results of this assay are expressed as fold induction. […] The cytotoxicity was also assessed in parallel to avoid false positive CYP induction results due to cytotoxicity. […]"}}, "data": [{"smiles": "Cn1nc(NS(C)(=O)=O)c2c(Cl)ccc(-n3c([C@H](Cc4cc(F)cc(F)c4)NC(=O)Cn4nc(C(F)F)c5c4C(F)(F)[C@@H]4C[C@H]54)nc4nc(OCCC(F)(F)F)ccc4c3=O)c21", "note": "(atropisomer, axis not shown; (P)) [Example 1, N—((S)-1-((3P)-3-(4-chloro-1-methyl-3-(methylsulfonamido)-1H-indazol-7-yl)-4-oxo-7-(3,3,3-trifluoropropoxy)-3,4-dihydropyrido[2,3-d]pyrimidin-2-yl)-2-(3,5-difluorophenyl)ethyl)-2-((3bS,4aR)-3-(difluoromethyl)-5,5-difluoro-3b,4,4a,5-tetrahydro-1H-cyclopropa[3,4]cyclopenta[1,2-c]pyrazol-1-yl)acetamide]", "values": [{"measurement": "intrinsic clearance in human hepatocytes", "setting": "[1]; 0.5 μM, 0.5×10^6 cells per milliliter", "result": 0.312, "unit": "mL/min/g liver"}, {"measurement": "half-life at 0.5 μM", "setting": "[1]; human, cryopreserved hepatocytes in suspension, pH 7.4, 0.5×10^6 cells per milliliter", "result": "> 8", "unit": "h"}, {"measurement": "stability in dog liver microsomes relative to Example 60.2", "setting": "[2]; Example 1 versus Example 60.2", "result": "six times more stable"}, {"measurement": "half-life at 1 μM", "setting": "[2]; dog, liver microsomes, pH 7.4, 1 μM compound, 1 mg/mL microsomes, NADPH, read-out: Dog liver microsome T1/2", "result": 1.75, "unit": "h"}, {"measurement": "CYP2B6 induction finding (mRNA fold-change method)", "setting": "[3]", "result": "negative finding (a fold-change in mRNA levels less than 2-fold is considered a negative finding)"}]}]}
